The values that follow are results of earlier work, collected in patent US8835508B2, “Stable aqueous solution containing sodium pyruvate, and the preparation and use thereof” (priority 2006, dated 2014).

Like-named read-outs stand apart in the source and are kept apart here.

The conditions of this data set: for content of dimer: 3.0 M (3,000 mM) pure NaPyr in water, room temperature.

Regarding `CC(=O)C(=O)[O-].[Na+]` [NaPyr, sodium pyruvate], the content of dimer is, setting by setting: (pH 7.3, after 24 hours) 9.1%; (pH 7.3, after 48 hours) 18.4%. The “stability of aqueous solution containing NaPyr” value (22° C., pH >6.0, HPLC and NMR) is listed as “unstable”.
